In assay [1] the target is PTGER2 (EP2) (Homo sapiens (Human), UniProt P43116). The assay can be described thus: hEP2 b-arrestin assay (PathHunter HEK 293 PTGER2 b-arrestin cells). In kind it is cell-based. Conditions: antagonistic activity on hEP2; mean where measured multiple times. The method, boiled down:
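HEK293 cells expressing ProLink-tagged EP2 and EA-fused β-arrestin 2 (enzyme fragment complementation) were seeded 24 h, pre-incubated with compound 15 min at 37 °C, then stimulated with 5 μM PGE2 (final) for 120 min.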

Assay [2] deals with PTRGER4 (EP4) (Homo sapiens (Human), UniProt P35408). Description: hEP4 b-arrestin assay (PathHunter HEK 293 PTGER4 b-arrestin cells). In kind it is cell-based. The settings on record: antagonistic activity on hEP4; mean where measured multiple times. Put shortly:
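Stably transfected HEK293 cells carrying EP4–ProLink and β-arrestin 2–EA (β-gal fragment complementation), pre-incubated with compound 15 min at 37 °C, then stimulated with PGE2 (20 nM final) for 120 min at 37 °C. Chemiluminescence read after 1 h detection reagent at room temperature; activity per concentration expressed as percent of DMSO control.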

By IC50 is commonly meant the point on the concentration scale where inhibition reaches its midpoint.

Sequence of PTRGER4 (EP4) (P35408 whole entry, looked up, the tested form may be a part): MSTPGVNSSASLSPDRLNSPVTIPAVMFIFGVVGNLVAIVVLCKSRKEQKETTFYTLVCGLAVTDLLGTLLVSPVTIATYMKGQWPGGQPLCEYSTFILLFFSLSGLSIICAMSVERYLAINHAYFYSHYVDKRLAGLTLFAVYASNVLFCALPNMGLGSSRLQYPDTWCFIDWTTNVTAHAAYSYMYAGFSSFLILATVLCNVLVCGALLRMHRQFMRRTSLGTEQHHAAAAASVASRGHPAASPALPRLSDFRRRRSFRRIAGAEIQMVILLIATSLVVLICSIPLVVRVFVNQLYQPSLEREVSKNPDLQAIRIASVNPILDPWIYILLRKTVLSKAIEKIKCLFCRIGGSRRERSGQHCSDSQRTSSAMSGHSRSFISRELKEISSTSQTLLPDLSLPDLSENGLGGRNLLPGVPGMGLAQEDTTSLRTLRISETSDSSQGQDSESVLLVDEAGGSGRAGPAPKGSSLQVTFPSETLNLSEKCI
Sequence of PTGER2 (EP2) (P43116 whole entry, the tested form may be a part): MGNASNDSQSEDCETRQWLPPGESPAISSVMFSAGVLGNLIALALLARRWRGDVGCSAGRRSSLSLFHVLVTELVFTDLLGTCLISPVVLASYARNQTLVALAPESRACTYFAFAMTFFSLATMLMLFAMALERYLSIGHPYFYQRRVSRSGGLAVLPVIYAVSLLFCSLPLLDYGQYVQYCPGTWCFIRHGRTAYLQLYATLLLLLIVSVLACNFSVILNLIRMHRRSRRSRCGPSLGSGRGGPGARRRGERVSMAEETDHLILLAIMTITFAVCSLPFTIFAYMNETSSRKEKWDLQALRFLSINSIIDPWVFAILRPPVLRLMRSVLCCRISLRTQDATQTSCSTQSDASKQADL

For the compound `COc1ccc(F)c2c1cc(C)n2CCNc1cc(-c2ccc(CO)c(F)c2)ncn1` [compound 28, (2-Fluoro-4-{6-[2-(7-fluoro-4-methoxy-2-methyl-indol-1-yl)-ethylamino]-pyrimidin-4-yl}-phenyl)-methanol], the IC50 was 17 nM in assay [1] and 249 nM in assay [2].

Take `Cc1ccc(F)c2c1cc(C)n2CCNc1cc(-c2ccc(C(=O)O)c(Cl)c2)ncn1` [compound 29, 2-Chloro-4-{6-[2-(7-fluoro-2,4-dimethyl-indol-1-yl)-ethylamino]-pyrimidin-4-yl}-benzoic acid]: the IC50 was 18 nM in assay [1] and 575 nM in assay [2].

For the compound `COc1cc(-c2cc(NCCn3c(C)cc4c(C)ccc(F)c43)ncn2)ccc1CO` [compound 30, (4-{6-[2-(7-Fluoro-2,4-dimethyl-indol-1-yl)-ethylamino]-pyrimidin-4-yl}-2-methoxy-phenyl)-methanol], the half-inhibitory concentration (IC50) turned out to be 34 nM in assay [1] and 243 nM in assay [2].

On to `Cc1cc(-c2cc(NCCn3c(C)cc4c(C)ccc(F)c43)ncn2)ccc1C(=O)O` [compound 31, 4-{6-[2-(7-Fluoro-2,4-dimethyl-indol-1-yl)-ethylamino]-pyrimidin-4-yl}-2-methyl-benzoic acid], for which the IC50 in assay [1] was determined as 24 nM; in assay [2] it was 543 nM.

In the case of `COc1ccc(F)c2c1cc(C)n2CCNc1cc(-c2ccc(CO)c(C)c2)ncn1` [compound 32, (4-{6-[2-(7-Fluoro-4-methoxy-2-methyl-indol-1-yl)-ethylamino]-pyrimidin-4-yl}-2-methyl-phenyl)-methanol], the figures for the half-maximal inhibitory concentration (IC50) in assay [1] and in assay [2] were 26 nM and 162 nM, respectively.

On to `CCSc1cc(-c2cc(NCCn3c(C)cc4ccccc43)ncn2)ccc1C(=O)O` [compound 33, 2-Ethylsulfanyl-4-{6-[2-(2-methyl-indol-1-yl)-ethylamino]-pyrimidin-4-yl}-benzoic acid], for which the IC50 in assay [1] came out at 3 nM; in assay [2] it was 678 nM.

Take `COc1cc(-c2cc(NCCn3c(C)cc4c(C)cccc43)ncn2)ccc1C(=O)O` [compound 35, 4-{6-[2-(2,4-Dimethyl-indol-1-yl)-ethylamino]-pyrimidin-4-yl}-2-methoxy-benzoic acid]: the IC50 turned out to be 15 nM in assay [1] and 952 nM in assay [2].

Take `COc1cc(-c2cc(NCCn3c(C)cc4c(OC)cccc43)ncn2)ccc1CO` [compound 36, (2-Methoxy-4-{6-[2-(4-methoxy-2-methyl-indol-1-yl)-ethylamino]-pyrimidin-4-yl}-phenyl)-methanol]: the values for the half-inhibitory concentration (IC50) in assay [1] and in assay [2] were 5 nM and 219 nM, respectively.

Regarding `Cc1ccc(F)c2c1cc(C)n2CCNc1cc(-c2ccc(S(=O)(=O)O)cc2)ncn1` [compound 37, 4-{6-[2-(7-Fluoro-2,4-dimethyl-indol-1-yl)-ethylamino]-pyrimidin-4-yl}-benzenesulfonic acid], the IC50 in assay [1] came to 34 nM; in assay [2], 436 nM.

Turning to `COc1cc(F)cc2c1cc(C)n2CCNc1cc(-c2cc(Cl)c(C(=O)O)s2)ncn1` [compound 38, 3-Chloro-5-{6-[2-(6-fluoro-4-methoxy-2-methyl-indol-1-yl)-ethylamino]-pyrimidin-4-yl}-thiophene-2-carboxylic acid], the IC50 in assay [1] turned out to be 5 nM; in assay [2], 39 nM.

On to `COc1cccc2c1cc(C)n2CCNc1cc(-c2ccc(NC(N)=O)cc2)ncn1` [compound 39, (4-{6-[2-(4-Methoxy-2-methyl-indol-1-yl)-ethylamino]-pyrimidin-4-yl}-phenyl)-urea], for which the results for the IC50 in assay [1] and in assay [2] were 19 nM and 515 nM, respectively.

Take `Cc1ccc(F)c2c1cc(C)n2CCNc1cc(-c2ccc(NC(N)=O)cc2)ncn1` [compound 40, (4-{6-[2-(7-Fluoro-2,4-dimethyl-indol-1-yl)-ethylamino]-pyrimidin-4-yl}-phenyl)-urea]: the IC50 in assay [1] stood at 86 nM; in assay [2], 392 nM.

For `Cc1ccc(F)c2c1cc(C)n2CCNc1cc(-c2ccc(C(=O)O)c(N)c2)ncn1` [compound 41], the IC50 in assay [1] is 101 nM; in assay [2], 91 nM.

With `COc1ccc(F)c2c1cc(C)n2CCNc1cc(-c2ccc(C(N)=O)cc2)ncn1` [compound 42, 4-{6-[2-(7-Fluoro-4-methoxy-2-methyl-indol-1-yl)-ethylamino]-pyrimidin-4-yl}-benzamide], the figures for the IC50 in assay [1] and in assay [2] were 21 nM and 494 nM, respectively.

With `Cc1cc2c(Cl)cc(Cl)cc2n1CCNc1cc(-c2cc(Cl)c(C(=O)O)s2)ncn1` [compound 44], the values for the IC50 in assay [1] and in assay [2] were 5 nM and 240 nM, respectively.

Turning to `Cc1cc(-c2cc(NCCn3c(C)cc4c(C)ccc(F)c43)ncn2)sc1C(=O)O` [compound 45], the IC50 in assay [1] was found to be 14 nM; in assay [2], 75 nM.

Consider `Cc1cc2c(Cl)ccc(F)c2n1CCNc1cc(-c2ccc(C(=O)O)cc2)ncn1` [compound 46], for which the results for the IC50 in assay [1] and in assay [2] were 29 nM and 970 nM, respectively.

For `Cc1ccc(F)c2c1cc(C)n2CCNc1cc(-c2cc(F)c(C(=O)O)s2)ncn1` [compound 47], the values for the IC50 in assay [1] and in assay [2] were 18 nM and 136 nM, respectively.

In the case of `Cc1cc(F)cc2c1cc(C)n2CCNc1cc(-c2cc(F)c(C(=O)O)s2)ncn1` [compound 48], the IC50 was 24 nM in assay [1] and 351 nM in assay [2].

Regarding `COc1cccc2c1cc(C)n2CCNc1cc(-c2cc(F)c(C(=O)O)s2)ncn1` [compound 49], the concentration for half-maximal inhibition (IC50) is 4 nM in assay [1] and 235 nM in assay [2].

As for `CCOc1cc(-c2cc(NCCn3c(C)cc4ccccc43)ncn2)sc1C(=O)O` [compound 50], the IC50 is 1 nM in assay [1] and 161 nM in assay [2].

`COc1cccc2c1cc(C)n2CCNc1cc(-c2cc(C)c(C(=O)O)s2)ncn1` [compound 51]: the IC50 was determined as 3 nM in assay [1] and 143 nM in assay [2].

On to `Cc1n[nH]c2cc(-c3cc(NCCn4c(C)cc5c(C)cc(F)cc54)ncn3)ccc12` [compound 52], for which the half-inhibitory concentration (IC50) in assay [1] came to 221 nM; in assay [2] it was 583 nM.

As for `Cc1cc(F)cc2c1cc(C)n2CCNc1cc(-c2ccc3cnn(C)c3c2)ncn1` [compound 53], the values for the IC50 in assay [1] and in assay [2] were 98 nM and 350 nM, respectively.

In the case of `Cc1nc2cc(-c3cc(NCCn4c(C)cc5c(C)ccc(F)c54)ncn3)ccc2[nH]1` [compound 54], the IC50 in assay [1] stood at 125 nM; in assay [2], 305 nM.

With `Cc1ccc(F)c2c1cc(C)n2CCNc1cc(-c2ccc3nccnc3c2)ncn1` [compound 55, [2-(7-Fluoro-2,4-dimethyl-indol-1-yl)-ethyl]-(6-quinoxalin-6-yl-pyrimidin-4-yl)-amine], the IC50 in assay [1] is 63 nM; in assay [2], 570 nM.

As to `COc1ccc(Cl)c2c1cc(C)n2CCNc1cc(-c2ccc3[nH]cnc3c2)ncn1` [compound 56], the IC50 in assay [1] stood at 151 nM; in assay [2] it was 698 nM.

Turning to `COc1ccc(F)c2c1cc(C)n2CCNc1cc(-c2ccc3[nH]cnc3c2)ncn1` [compound 57, [6-(1H-Benzoimidazol-5-yl)-pyrimidin-4-yl]-[2-(7-fluoro-4-methoxy-2-methyl-indol-1-yl)-ethyl]-amine], the IC50 worked out at 16 nM in assay [1] and 113 nM in assay [2].

Turning to `COc1ccc(F)c2c1cc(C)n2CCNc1cc(-c2ccc3cn[nH]c3c2)ncn1` [compound 58, [2-(7-Fluoro-4-methoxy-2-methyl-indol-1-yl)-ethyl]-[6-(1H-indazol-6-yl)-pyrimidin-4-yl]-amine], the 50% inhibitory concentration (IC50) was determined as 22 nM in assay [1] and 477 nM in assay [2].

As to `Cc1cc(F)c(F)c2c1cc(C)n2CCNc1cc(-c2ccc3cc[nH]c3c2)ncn1` [compound 59, [2-(6,7-Difluoro-2,4-dimethyl-indol-1-yl)-ethyl]-[6-(1H-indol-6-yl)-pyrimidin-4-yl]-amine], the figures for the IC50 in assay [1] and in assay [2] were 213 nM and 485 nM, respectively.

In the case of `COc1cccc2c1cc(C)n2CCNc1cc(-c2ccc3nc(C)oc3c2)ncn1` [compound 60], the IC50 was found to be 85 nM in assay [1] and 290 nM in assay [2].

Take `Cc1cc(F)cc2c1cc(C)n2CCNc1cc(-c2ccc3c(c2)CC(=O)N3)ncn1` [compound 61]: the IC50 in assay [1] is 98 nM; in assay [2], 518 nM.

As for `COc1cc(F)cc2c1cc(C)n2CCNc1cc(-c2ccc3c(c2)CCN3)ncn1` [compound 62, [6-(2,3-Dihydro-1H-indol-5-yl)-pyrimidin-4-yl]-[2-(6-fluoro-4-methoxy-2-methyl-indol-1-yl)-ethyl]-amine], the figures for the IC50 in assay [1] and in assay [2] were 11 nM and 32 nM, respectively.

Regarding `COc1cc(F)cc2c1cc(C)n2CCNc1cc(-c2ccc3cc[nH]c3c2)ncn1` [compound 63, [2-(6-Fluoro-4-methoxy-2-methyl-indol-1-yl)-ethyl]-[6-(1H-indol-6-yl)-pyrimidin-4-yl]-amine], the IC50 in assay [1] turned out to be 26 nM; in assay [2] it was 227 nM.

In the case of `Cc1ccc(F)c2c1cc(C)n2CCNc1cc(-c2ccc3c(c2)CC(=O)N3)ncn1` [compound 64, 5-{6-[2-(7-Fluoro-2,4-dimethyl-indol-1-yl)-ethylamino]-pyrimidin-4-yl}-1,3-dihydro-indol-2-one], the IC50 in assay [1] was 47 nM; in assay [2], 231 nM.

Take `COc1ccc(Cl)c2c1cc(C)n2CCNc1cc(-c2ccc3c(c2)CCN3)ncn1` [compound 66, [2-(7-Chloro-4-methoxy-2-methyl-indol-1-yl)-ethyl]-[6-(2,3-dihydro-1H-indol-5-yl)-pyrimidin-4-yl]-amine]: the IC50 in assay [1] came out at 21 nM; in assay [2], 189 nM.

In the case of `COc1ccc(F)c2c1cc(C)n2CCNc1cc(-c2ccc3c(c2)CCN3)ncn1` [compound 67, [6-(2,3-Dihydro-1H-indol-5-yl)-pyrimidin-4-yl]-[2-(7-fluoro-4-methoxy-2-methyl-indol-1-yl)-ethyl]-amine], the results for the concentration for half-maximal inhibition (IC50) in assay [1] and in assay [2] were 10 nM and 59 nM, respectively.
